Where no end group is shown, it is not given here.
Experiments:
rat islet cells [1] = assay: Glucose-stimulated insulin secretion from isolated rat islets of Langerhans; type: cell-based; conditions: glucose 10 mmol/L; for RELATIVE INSULIN SECRETION INHIBITION: reduction from control
Method: All experiments were performed by known methods used in experimental practice. See, e.g., Lacey P E, and Kostianovsky M, Method for the isolation of intact islets of Langerhans from the rat Dancreas. Diabetes 1967; 16:35-39.
Briefly, rats were killed, and islets of Langerhans were isolated from their pancreases. Experiments were performed either with freshly isolated islets or after overnight incubation of islets (23 h) in standard culture medium and conditions at 37° C. […] Incubation of islets for these experiments was carried out in standard Krebs-Heinsleit buffer, and it was verified that the addition of the 1.0 mmol/L citrate buffer had no effect on the pH of the incubation medium. Stimulation of islets was carried out at the standard stimulatory glucose concentration of 10 mmol/L.
Production of insulin is expressed as μU/islet/h. All experiments were performed with five replicates per point. The integrity of the islet response was assessed by comparing the responses after stimulation of different aliquots of islets by two and ten mmol/L glucose, respectively, and the strength of the inhibitory response was judged against that induced by 1 μg/ml (650 nmol/L) somatostatin. […] See Arimura A. Biomed res 1981; 2:233-257. […] See Petterson M, Ahren B, Bottcher G, Sundler F, Endocrinology 1986; 119:865-869.
The results are shown in TABLE 5 below and all results are expressed as ± standard error of the mean (s.e.m.). The significance of differences between the means of groups is assessed by the t-test. The result of stimulation by 10 mmol/L glucose is compared with the results of stimulation at 2 mmol/L glucose. In all other experimental conditions, the significance of the inhibitory effect is measured against the effect of 10 mmol/L glucose alone.

rat islet cells [2] = conditions: literature statement; cited from earlier work
[3] = target: T1, insulin receptor on red blood cells; assay: Displacement of insulin from its receptor on red blood cells; type: binding
T1 construct: endogenous in cells; host or cells: red blood cells

In the case of “CGRP 27-37 (FVPTNVGSKAF; ends and bridges not checked; UniProt P06881 109-119, looked up, fragment)”, the “INSULIN PRODUCTION Mean value” (rat islet cells [1]; 10 nmol/L) was 36 μU/islet/hr, the “RELATIVE INSULIN SECRETION INHIBITION” value (rat islet cells [1]; 10 nmol/L) was 55% and the “INSULIN PRODUCTION Mean value” (rat islet cells [1]; 100 nmol/L) was 36 μU/islet/hr. The “RELATIVE INSULIN SECRETION INHIBITION” value (rat islet cells [1]; 100 nmol/L) was 55%, the “INSULIN PRODUCTION Mean value” (rat islet cells [1]; 1000 nmol/L) was 46 μU/islet/hr and the “RELATIVE INSULIN SECRETION INHIBITION” value (rat islet cells [1]; 1000 nmol/L) was 42%.
In the case of `C[C@H](N)C(=O)NCC(=O)N[C@H]1CSSC[C@@H](C(=O)O)NC(=O)[C@H](CO)NC(=O)[C@H]([C@@H](C)O)NC(=O)[C@H](Cc2ccccc2)NC(=O)[C@H]([C@@H](C)O)NC(=O)[C@H](CCCCN)NC(=O)[C@H](Cc2c[nH]c3ccccc23)NC(=O)[C@H](Cc2ccccc2)NC(=O)[C@H](Cc2ccccc2)NC(=O)[C@H](CC(N)=O)NC(=O)[C@H](CCCCN)NC1=O` [Somatostatin, reference compound], the “INSULIN PRODUCTION Mean value” (rat islet cells [1]; 650 nmol/L) is listed as 44 μU/islet/hr, the “RELATIVE INSULIN SECRETION INHIBITION” value (rat islet cells [1]; 650 nmol/L) is listed as 45% and the “inhibition of the insulin secretory response of islet B-cells to glucose” value (rat islet cells [2]) is listed as “known, potent inhibitor”.
For “amylin: 37-residue peptide from pancreatic amyloid of Type 2 diabetics; source (synthetic or native) not stated at these places (KCNTATCATQRLANFLVHSSNNFGAILSSTNVGSNTY; Islet amyloid polypeptide; UniProt P10997 34-70, looked up)”, the “displacing insulin from its receptor on red blood cells” value [3] was “not capable of significantly displacing insulin”.

Source: patent US5266561A, “Treatment of type 2 diabetes mellitus” (Amylin Pharmaceuticals, Inc., priority 1991, dated 1993)
